Results as given in PMC9144936, “New Cu^+2 Complexes with N-Sulfonamide Ligands: Potential Antitumor, Antibacterial, and Antioxidant Agents” (Molecules, 2022).

What was measured:
Assay type in all cases: cell-based
[1] = system: Bacillus cerreus ATCC 14579; assay: Disk diffusion method, B. cerreus; details: complexes 5 µL of 1 mg/mL; 25 µg Amoxicillin, 5 µg Norfloxacin; 24 h, 37 °C
From the text: (§1) The disk diffusion method was used to determine the antibacterial activity of the C1 and C2 copper complexes on four reference microbial strains, two Gram-positive (Staphylococcus aureus and Bacillus cerreus) and two Gram-negative (Escherichia coli and Pseudomonas aeruginosa) strains. The disk diffusion method was used to determine the antibacterial activity of the C1 and C2 copper complexes. The method was adapted for the purposes of the current study, according to the standards developed by the Clinical and Laboratory Standards Institute. Four reference microbial strains, two Gram-positive (Staphylococcus aureus ATCC […] and Bacillus cerreus ATCC 14579) and two Gram-negative (Escherichia coli ATCC 10536 and Pseudomonas aeruginosa ATCC 27853) strains, were used for in vitro susceptibility testing. These reference microbial strains were obtained from the American Type Culture Collection (ATCC, Manassas, VA, USA). As positive controls, Amoxicillin (Oxoid Ltd., Basingstoke, UK) and Norfloxacin (Sigma-Aldrich) were used. For each of the four species, an initial suspension of bacterial cultures was inoculated on nutrient agar plates (Merck KGaA, Darmstadt, Germany), incubated for 24 h at 37 ± 2 °C and resuspended in a physiological saline buffer to a […] concentration (on a 0.5 McFarland scale), and further inoculated on Muëller Hinton agar plates (Merck KGaA, Darmstadt, Germany). […] After inoculation, the medium surface was dried and 8 wells were radially drilled 1.5 cm from the outer edge, 3 cm apart. From aliquot samples of 1 mg/mL of each copper complex dissolved in DMSO and incorporated in sterile liquid medium, 5 μL was placed in each of the 8 wells and left for 30 min to diffuse into the agar plates. The plates were then incubated for 24 h at 37 ± 2 °C. Then, 25 μg Amoxicillin and 5 μg Norfloxacin served as a positive controls, while DMSO 0.75% was used as a negative control. Readings were conducted by measuring the diameter of the inhibition zone (Halo Zone Test, in mm). The germ sensitivity of the copper complexes was estimated by comparing the diameter of the inhibition area to that generated by the regular antibiotics with known inhibition values. […] All tests were triplicated, and the measured diameters of the inhibition zone were expressed (in mm) as mean ± standard deviation.

[2] = system: Pseudomonas aeruginosa ATCC 27853; assay: Disk diffusion method, P. aeruginosa; details: complexes 5 µL of 1 mg/mL; 5 µg Norfloxacin; 24 h, 37 °C
From the text: as §1

[3] = system: Staphylococcus aureus ATCC 6538P; assay: Disk diffusion method, S. aureus; details: complexes 5 µL of 1 mg/mL; 25 µg Amoxicillin, 5 µg Norfloxacin; 24 h, 37 °C
From the text: as §1

[4] = system: human radical growth phase melanoma cell line (WM35); assay: MTT cytotoxicity assay, WM35; details: for IC50: WM35 cells, MTT
Experimental: Three cell lines were used to determine the cytotoxicity of the complexes, a human cervical carcinoma line (HeLa), a human radical growth phase melanoma cell line (WM35), and a normal fibroblastic epithelial cell line (HFL1) using the MTT method. The cells were exposed to C1 and C2 complexes in different concentrations (50, 25, 12.5, 2, and 0.2 µM) at 24, 48, and 72 h. As positive contro, cisplatin was used.
To determine the cytotoxicity of the copper complexes, three cell lines were used: a human cervical carcinoma line (HeLa), a human radical growth phase melanoma cell line (WM35), and a normal fibroblastic epithelial cell line (HFL1). The cell lines were obtained from ATCC (American Type Cell Collection, Manassas, VA 20110-2209, USA) and were maintained in DMEM (Sigma-Aldrich, Saint Louis, Missouri, USA) supplemented with 10% fetal bovine serum (Hyclone), 1 mM glutamine (Sigma-Aldrich), and 1% antibiotic antimycotic 100× (Sigma-Aldrich). The cells were cultured at 37 °C in an atmosphere of 5% CO2 and 95% relative humidity.
The cytotoxicity assays were performed using the MTT assay (3-(4,5-dimethylthiazol-2-yl)-2,5-diphenyl tetrazolium bromide-Sigma Aldrich). Cells were plated at a density of 1 × 10^5 cells/well in 96-well plates for 24 h in normal propagation media. The cultures were then exposed to C1 and C2 complexes in different concentrations (50, 25, 12.5, 2, and 0.2 µM). The complexes were first solubilized in DMSO (Sigma) and then serial dilutions in media were performed until the final concentration of DMSO was less than 1%. As a positive control, cisplatin (Ebewe Pharma Ges.m.b.H. Nfg. KG, Austria) was used, in the same concentrations as the complexes. As a negative control, cell lines cultivated in normal expansion medium with the same amount of DMSO added were used. The cellular viability was determined using the MTT assay at 24, 48, and 72 h, respectively. Formazan particles were solubilized with DMSO and absorbances were determined at 550 nm using a microplate reader (Bio-Rad, Hercules, CA, USA). The cytotoxic activity, expressed as IC50 values representing the complex solution required to inhibit 50% of the cell proliferation, were calculated from the calibration curve by nonlinear regression. Each experiment was carried out in triplicate.

Substance	Halo Zone Test (diameter of the inhibition zone) [1]	Halo Zone Test (diameter of the inhibition zone) [2]	Halo Zone Test (diameter of the inhibition zone) [3]	IC50 value compared with cisplatin ([4]; WM35 cell lines, 24 h)	IC50 ([4]; 24 h)	IC50 ([4]; 48 h)	IC50 ([4]; 72 h)
[Cu(N-(5-Ethyl--[1,3,4]-Thiadiazole-2-yl) Naphtalenesulfonamidate)2(py)2(H2O)] [C2]	12 ± 0.34 mm	19 ± 0.19 mm	15 ± 0.44 mm	about two times lower	13 ± 0.15 µM	8.11 ± 0.13 µM	4.66 ± 0.07 µM
[Cu(N-(5-(4-Methylphenyl)-[1,3,4]-Thiadiazole-2-yl) Naphtalenesulfonamidate)2(H2O)3] [C1]	11 ± 0.25 mm	15 ± 0.32 mm	13 ± 0.17 mm	–	41.35 ± 0.19 µM	23.87 ± 0.17 µM	15.42 ± 0.08 µM
